Key:
[1] = test system: human tumor cell lines (A375, HT29, MCF-7, A2780, FaDu); assay: SRB cytotoxicity assay, statements across the cell line panel; assay type: cell-based; settings: span over all cell lines tested, cut-off of the assay 30 µM
Source text: The cell lines were obtained from Department of Oncology (Martin-Luther-University Halle Wittenberg; they were bought from ATCC; A 375 (CRL-1619), HT29 (HTB-38), MCF7 (HTM-22), A2780 (HTP-77), FaDu (HTP-43), NIH 3T3 (CRL-1658), HEK-293 (CRL-1573)). Cultures were maintained as monolayers in RPMI 1640 medium with L-glutamine (Capricorn Scientific GmbH, Ebsdorfergrund, Germany) supplemented with 10% heat inactivated fetal bovine serum (Sigma-Aldrich Chemie GmbH, Steinheim, Germany) and penicillin/streptomycin (1%, Capricorn Scientific GmbH, Ebsdorfergrund, Germany) at 37 °C in a humidified atmosphere with 5% CO2. The cytotoxicity of the compounds was evaluated using the sulforhodamine-B (Kiton-Red S, ABCR) micro culture colorimetric assay using confluent cells in 96-well plates with the seeding of the cells on day 0 applying appropriate cell densities to prevent confluence of the cells during the period of the experiment. […] Furthermore, tris base solution (200 μL, 10 mM) was added to each well and absorbance was measured at λ = 570 nm employing a reader (96 wells, Tecan Spectra, Crailsheim, Germany). The EC50 values were averaged from three independent experiments performed each in triplicate calculated from semi logarithmic dose response curves applying a non-linear four-parameter Hills-slope equation (GraphPad Prism5; variables top and bottom were set to 100 and 0, respectively).

[2] = test system: MCF-7 (breast adenocarcinoma); assay: SRB cytotoxicity assay, MCF-7; assay type: cell-based; settings: Homo sapiens, MCF7, 72 h of treatment, mean ± standard mean error
Source text: (§1) The cell lines were obtained from Department of Oncology (Martin-Luther-University Halle Wittenberg; they were bought from ATCC; A 375 (CRL-1619), HT29 (HTB-38), MCF7 (HTM-22), A2780 (HTP-77), FaDu (HTP-43), NIH 3T3 (CRL-1658), HEK-293 (CRL-1573)). Cultures were maintained as monolayers in RPMI 1640 medium with L-glutamine (Capricorn Scientific GmbH, Ebsdorfergrund, Germany) supplemented with 10% heat inactivated fetal bovine serum (Sigma-Aldrich Chemie GmbH, Steinheim, Germany) and penicillin/streptomycin (1%, Capricorn Scientific GmbH, Ebsdorfergrund, Germany) at 37 °C in a humidified atmosphere with 5% CO2. The cytotoxicity of the compounds was evaluated using the sulforhodamine-B (Kiton-Red S, ABCR) micro culture colorimetric assay using confluent cells in 96-well plates with the seeding of the cells on day 0 applying appropriate cell densities to prevent confluence of the cells during the period of the experiment. On day 1, the cells were treated with six different concentrations (1, 3, 7, 12, 20, and 30 μM); thereby, the final concentration of DMSO was always <0.5%, generally regarded as non-toxic to the cells. On day 4, the supernatant medium was discarded; the cells were fixed with 10% trichloroacetic acid. After another day at 4 °C, the cells were washed in a strip washer and dyed with the SRB solution (100 μL, 0.4% in 1% acetic acid) for about 20 min to be followed by washing of the plates (four times, 1% acetic acid) and air-drying overnight. Furthermore, tris base solution (200 μL, 10 mM) was added to each well and absorbance was measured at λ = 570 nm employing a reader (96 wells, Tecan Spectra, Crailsheim, Germany). The EC50 values were averaged from three independent experiments performed each in triplicate calculated from semi logarithmic dose response curves applying a non-linear four-parameter Hills-slope equation (GraphPad Prism5; variables top and bottom were set to 100 and 0, respectively).

[3] = test system: A2780 (ovarian carcinoma); assay: SRB cytotoxicity assay, A2780; assay type: cell-based; settings: Homo sapiens, 72 h of treatment, mean ± standard mean error
Source text: as §1

[4] = test system: HT29 (colon adenocarcinoma); assay: SRB cytotoxicity assay, HT29; assay type: cell-based, human; settings: Homo sapiens, HT-29, 72 h, 72 h of treatment, mean ± standard mean error
Source text: as §1

[5] = test system: FaDu (hypopharyngeal carcinoma); assay: SRB cytotoxicity assay, FaDu; assay type: cell-based; settings: Homo sapiens, 72 h of treatment, mean ± standard mean error
Source text: as §1

[6] = test system: NIH 3T3 (fibroblasts), non-malignant; assay: SRB cytotoxicity assay, NIH 3T3; assay type: cell-based; settings: Mus musculus, NIH3T3, 72 h, 72 h of treatment, mean ± standard mean error
Source text: as §1

A375 (melanoma) = assay: SRB cytotoxicity assay, A375; assay type: cell-based, human; settings: Homo sapiens, A-375, 72 h, 72 h of treatment, mean ± standard mean error
Source text: as §1

HeLa (cervical cancer) = assay: SRB cytotoxicity assay, HeLa; assay type: cell-based; settings: Homo sapiens, 72 h of treatment, mean ± standard mean error
[7] = test system: HEK293 (human embryonic kidney), non-malignant; assay: SRB cytotoxicity assay, HEK293; assay type: cell-based; settings: 72 h of treatment, mean ± standard mean error
Source text: as §1

In the case of `CC(=O)O[C@H]1CC[C@@]2(C)C(CC[C@]3(C)C2CCC2C4[C@H](C(C)=O)CC[C@]4(C(=O)O)CC[C@]23C)C1(C)C` (stereo partly drawn) [compound 4, 3β-Acetyloxy-20-oxo-30-norlupan-28-oic Acid], the “EC50 values across the cell lines” value [1] is reported as “not cytotoxic at all within the limits of the assay”, the EC50 [2] is reported as over 30000 nM and the EC50 [3] is reported as over 30000 nM. The EC50 [4] was over 30000 nM, the EC50 [5] was over 30000 nM and the EC50 [6] was over 30000 nM. It also gave an EC50 (A375 (melanoma)) of over 30000 nM.

`CC(=O)O[C@H]1CC[C@@]2(C)C(CC[C@]3(C)C2CC=C2C4CC(C)(C)CC[C@]4(C(=O)N4CCCN(C(=O)c5ccccc5C5=c6cc7c8c(c6Oc6c5cc5c9c6CCCN9CCC5)CCC[N+]=8CCC7)CC4)CC[C@]23C)C1(C)C` (stereo partly drawn) [compound 26] was tested, and the EC50 [2] was 120 ± 30 nM, the EC50 [3] was 70 ± 30 nM and the EC50 [4] was 130 ± 30 nM. The EC50 (HeLa (cervical cancer)) was 100 ± 50 nM, the EC50 [7] was 50 ± 10 nM and the EC50 [6] was 260 ± 50 nM. It also gave an EC50 (A375 (melanoma)) of 70 ± 10 nM.

`CC(=O)O[C@H]1CC[C@@]2(C)C(CC[C@]3(C)C2CC=C2C4[C@@H](C)[C@H](C)CC[C@]4(C(=O)N4CCCN(C(=O)c5ccccc5C5=c6cc7c8c(c6Oc6c5cc5c9c6CCCN9CCC5)CCC[N+]=8CCC7)CC4)CC[C@]23C)C1(C)C` (stereo partly drawn) [compound 27] was tested, and the EC50 [2] was 80 ± 30 nM, the EC50 [3] was 50 ± 20 nM and the EC50 [4] was 80 ± 20 nM. It also gave an EC50 (HeLa (cervical cancer)) of 90 ± 60 nM, an EC50 [7] of 40 ± 10 nM and an EC50 [6] of 240 ± 30 nM. It also gave an EC50 (A375 (melanoma)) of 60 ± 40 nM.

Source: publication PMC9000871, “Rhodamine 101 Conjugates of Triterpenoic Amides Are of Comparable Cytotoxicity as Their Rhodamine B Analogs” (Molecules, 2022)
